Four compounds from article PMC6385122, “Design and Synthesis of Arylamidine Derivatives as Serotonin/Norepinephrine Dual Reuptake Inhibitors” (Molecules, 2019) can be followed below.

Structures are written as SMILES. Counter-ions that a name gives are not always drawn.

One series has as its system rats. In words: Tail suspension test (TST) in rats. It counts as in vivo, rat. To be noted: male rats, 30 mg/kg PO; for Immobility Time: 60 min after administration; for Rate of Shorten Time (%): compared with the negative control group. How it is done:
Based on the in vitro results, compounds I-19, II-4, and II-5 were selected for the tail suspension test (TST) in rats. The TST has been used widely as a preclinical model for screening antidepressant activity, and it is sensitive to commercially available antidepressant drugs. In the assay, rats are suspended by tail and the time that the animal is immobile is recorded. The compounds were administered to male rats at a dose of 30 mg/kg (PO). […] In addition, the safety profile of compound II-5 was also explored with a preliminary acute toxicity test in mice at a single dose of 200 or 400 mg/kg (PO) (n = 6).
For two days before the formal experiment, the rats in each group were given doses orally once a day in the morning and in the afternoon. The rats were given doses orally once in each group in the formal experiment. After 60 min of administration, the rats were suspended head-down more than 50 cm from the ground with a 12-cm-long piece of insulating tape at a distance of 1 cm from the tail tip. The distance between adjacent rats was 15 cm. The immobility time of the rats was recorded. The rate of change in the immobility time of the rats in the test drug group and the positive control group was calculated and compared with the negative control group. Statistical analysis was performed using Prism 7.0 (GraphPad Software, San Diego, CA, USA).

Series [1] addresses T1, NE reuptake (NE transporter) (Rattus norvegicus, UniProt Q63380).
T1 construct: from tissue; host or cells: Wistar rat brain (procerebrum; crude synaptosomal supernatant)
In words: Inhibition of NE reuptake in rat brain synaptosome (3H-NE uptake). In kind it is biochemical. To be noted: for inhibition at 10 µM: read-out: NE reuptake percent inhibition. Here is the method:
(§1) All the target compounds were evaluated for their inhibitory activity against the reuptake of 5-HT and NE at the cellular level. Rat brain tissue was used for the uptake test, which included ^3H-5-HT and ^3H-NE [15]. 1-[7,8-^3H]-Noradrenaline and 5-hydroxy-[^3H]-tryptamine trifluoroacetate were obtained from Amersham Corporation.
(§2) Adult male Wistar rats were used. Animals were killed by decapitation and the whole brain, with the exception of the brainstem and cerebellum, was quickly removed. The procerebrum region was prepared, weighed, and homogenized in 10 volumes of ice-cold 0.32 mol/L sucrose solution using a glass homogenizer. The homogenate was centrifuged at 1000× g and 4 °C for 10 min. The supernatant was decanted and used for the uptake experiments. […] For each assay, three tubes were incubated with the vehicle (20 µL) at 0 °C in an ice bath. After incubation, the tubes were immediately filtered with a cell harvester. The fiberglass filter membrane was washed three times with ice-cold saline, placed in a scintillation vial, and counted in liquid scintillation cocktail (4 mL). Active uptake was the difference between the counts per minute at 37 and 0 °C. The percent inhibition at each drug concentration was the mean of three measurements.

Series [2] deals with T2, 5-HT reuptake (5-HT transporter) (Rattus norvegicus, UniProt P31652).
T2 construct: from tissue; host or cells: Wistar rat brain (procerebrum; crude synaptosomal supernatant)
T2 sequence (P31652 whole entry): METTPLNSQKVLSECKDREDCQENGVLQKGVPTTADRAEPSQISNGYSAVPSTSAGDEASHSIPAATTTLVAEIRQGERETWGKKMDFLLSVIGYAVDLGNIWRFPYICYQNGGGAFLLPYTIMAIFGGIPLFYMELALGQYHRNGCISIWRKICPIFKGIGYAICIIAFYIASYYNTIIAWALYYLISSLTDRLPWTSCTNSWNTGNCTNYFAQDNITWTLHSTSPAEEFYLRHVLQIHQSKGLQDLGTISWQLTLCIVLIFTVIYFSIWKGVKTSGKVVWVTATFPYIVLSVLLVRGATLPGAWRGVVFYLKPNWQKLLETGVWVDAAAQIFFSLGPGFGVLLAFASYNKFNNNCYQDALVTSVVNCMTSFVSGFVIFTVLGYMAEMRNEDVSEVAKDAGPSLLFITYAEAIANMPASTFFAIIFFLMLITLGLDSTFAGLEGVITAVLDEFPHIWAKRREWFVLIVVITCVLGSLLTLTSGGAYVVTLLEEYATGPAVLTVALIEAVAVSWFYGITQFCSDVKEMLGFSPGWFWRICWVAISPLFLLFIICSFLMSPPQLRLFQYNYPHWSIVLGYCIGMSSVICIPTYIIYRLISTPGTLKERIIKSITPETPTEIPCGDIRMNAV
The series is described as follows: Inhibition of 5-HT reuptake in rat brain synaptosome (3H-5-HT uptake). In kind it is biochemical. Particulars: for inhibition at 10 µM: read-out: 5-HT reuptake percent inhibition. How it is done:
as §1, §2

Series [3] is described as follows: Preliminary acute toxicity test in mice. In kind it is in vivo. To be noted: male, ICR, mouse, in vivo; mice, PO, 20 h. Here is the method: (§3) In the assay, rats are suspended by tail and the time that the animal is immobile is recorded. The compounds were administered to male rats at a dose of 30 mg/kg (PO).
(§4) Male ICR mice (20–25 g) were used from Institute of Materia Medica, Chinese Academy of Medical Sciences, Beijing, China. Mice were randomly divided into two groups with six mice each. Mice were orally given II-5 with a single dose 200 and 400 mg/kg or vehicle control, respectively. The mouse death was monitored for 20 h after treatment.

A further series relates to mice. The series is described as follows: Preliminary acute toxicity test in mice. In kind it is in vivo. Particulars: male ICR mice, n = 6. How it is done: as §3, §4

T1 sequence (Q63380 1-617): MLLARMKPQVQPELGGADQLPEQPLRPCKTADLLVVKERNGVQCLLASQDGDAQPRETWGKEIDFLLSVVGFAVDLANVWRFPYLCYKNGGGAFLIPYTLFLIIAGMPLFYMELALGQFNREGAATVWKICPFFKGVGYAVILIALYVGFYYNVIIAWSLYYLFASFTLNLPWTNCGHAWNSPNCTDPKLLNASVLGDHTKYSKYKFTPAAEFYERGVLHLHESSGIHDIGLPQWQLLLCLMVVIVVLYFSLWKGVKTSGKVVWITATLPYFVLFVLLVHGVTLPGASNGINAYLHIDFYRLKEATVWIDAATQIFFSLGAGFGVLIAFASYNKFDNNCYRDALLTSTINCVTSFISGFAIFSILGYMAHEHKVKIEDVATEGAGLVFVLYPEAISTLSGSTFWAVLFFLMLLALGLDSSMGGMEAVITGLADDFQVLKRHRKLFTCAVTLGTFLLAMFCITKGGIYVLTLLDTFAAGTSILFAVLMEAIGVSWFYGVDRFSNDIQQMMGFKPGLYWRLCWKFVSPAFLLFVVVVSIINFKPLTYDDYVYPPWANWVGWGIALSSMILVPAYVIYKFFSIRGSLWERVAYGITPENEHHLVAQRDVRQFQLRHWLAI

For orientation: IC50 means the concentration that inhibits the measured activity by half. Usually inhibition stands for the drop in the measured response relative to a control, in per cent. On to `N#Cc1cccc(/C(=N\Cc2ccc(Cl)cc2)N2CCNCC2)c1` [Compound I-19, (E)-1-(4-Chlorophenyl)-N-((3-cyanophenyl)(piperazin-1-yl)methylene)methanaminehydrochloride], for which, in the series on rats, the “Immobility Time” value came out at 34 ± 17 s and the “Rate of Shorten Time (%)” value came to 37.8%. Besides, in series [1], half-maximal inhibition (IC50) was put at 560 nM and the inhibition at 10 µM came out at 78%. In addition, in series [2], the IC50 was 830 nM and the inhibition at 10 µM worked out at 82%.

Regarding `CNCC[C@H](Oc1cccc2ccccc12)c1cccs1` [Duloxetine, reference compound], in the series with rats, the “Immobility Time” value worked out at 11 ± 5 s and the “Rate of Shorten Time (%)” value is recorded as 79.0%.

On to `Fc1ccccc1/C(=N\Cc1cccc2ccccc12)N1CCNCC1` [II-4, (E)-N-((2-Fluorophenyl)(piperazin-1-yl)methylene)-1-(naphthalen-1-yl)methanaminehydrochloride], for which, in the series on rats, the “Immobility Time” value turned out to be 33 ± 19 s and the “Rate of Shorten Time (%)” value is recorded as 39.7%. In addition, in series [1], half-maximal inhibition (IC50) required 880 nM and the inhibition at 10 µM stood at 78%. Also, in series [2], half-maximal inhibition (IC50) required 130 nM and the inhibition at 10 µM was 90%.

The LD50 is the dose at which mortality reaches 50%. With `Clc1ccccc1/C(=N\Cc1cccc2ccccc12)N1CCNCC1` [II-5, (E)-N-((2-Chlorophenyl)(piperazin-1-yl)methylene)-1-(naphthalen-1-yl)methanaminehydrochloride], the “Immobility Time” value in the series on rats was determined as 18 ± 7 s. Further, the “Rate of Shorten Time (%)” value in the series with rats came out at 67.8%. Further, the figures for the IC50 in series [1] and in series [2] were 10 nM and 620 nM, respectively. For the same compound, the inhibition at 10 µM in series [1] is 92%; in series [2], 81%. In series [3], the LD50 at 20 h was over 400 mg/kg. Further, the “Survival at 20 h” value in the series on mice (single dose 200 mg/kg PO) and in the series on mice (single dose 400 mg/kg PO) was 100% in each case.
